Measurements: ChEMBL document CHEMBL1909046, “DrugMatrix in vitro pharmacology data”

What was measured:
[1] = biological target: Beta-3 adrenergic receptor (Homo sapiens, UniProt P13945); experiment: DRUGMATRIX: Adrenergic beta3 radioligand binding (ligand: [125I] Cyanopindolol); type: cell membranes, HEK293, Membrane; conditions: hek293; Not Active = under 50% inhibition at 10 µM
Endothelin-1 receptor = biological target: T1, Endothelin-1 receptor (Homo sapiens, UniProt P25101); type: cell membranes, Membrane; conditions: cho-k1; also: in other assays of this panel Not Active means under 50% inhibition at 10 µM
T1 sequence (P25101 whole entry): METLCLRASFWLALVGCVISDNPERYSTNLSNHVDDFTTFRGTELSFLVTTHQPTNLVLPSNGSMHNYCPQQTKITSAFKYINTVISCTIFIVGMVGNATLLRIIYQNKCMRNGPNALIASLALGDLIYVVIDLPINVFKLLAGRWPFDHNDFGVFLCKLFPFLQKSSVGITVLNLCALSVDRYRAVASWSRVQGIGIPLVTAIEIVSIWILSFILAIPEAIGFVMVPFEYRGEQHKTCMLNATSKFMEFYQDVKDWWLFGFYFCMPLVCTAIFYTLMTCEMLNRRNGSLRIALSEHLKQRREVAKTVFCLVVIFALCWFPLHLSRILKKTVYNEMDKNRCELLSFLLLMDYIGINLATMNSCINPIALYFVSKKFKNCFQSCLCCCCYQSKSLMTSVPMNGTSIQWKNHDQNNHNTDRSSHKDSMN

[2] = DRUGMATRIX: Glutamate, NMDA, Phencyclidine radioligand binding (ligand: [3H] TCP); type: cell membranes, Rattus norvegicus, Wistar, Cerebral cortex, Membrane; conditions: Not Active = under 50% inhibition at 10 µM
[3] = DRUGMATRIX: Phorbol Ester radioligand binding (ligand: [3H] PDBu); type: cell membranes, Mus musculus, ICR, Brain, Membrane; conditions: Not Active = under 50% inhibition at 10 µM
[4] = DRUGMATRIX: Platelet-Derived Growth Factor (PDGF) radioligand binding (ligand: [125I] PDGF); type: cell-based; conditions: nih3t3; Not Active = under 50% inhibition at 10 µM
Interstitial collagenase = biological target: T2, Interstitial collagenase (Homo sapiens, UniProt P03956); experiment: biochemical; type: tissue-based, Rheumatoid synovial fibroblasts;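 also: MMP-1 enzyme inhibition assay using a peptide substrate; in other assays of this panel Not Active means under 50% inhibition at 10 µM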
T2 sequence (P03956 whole entry): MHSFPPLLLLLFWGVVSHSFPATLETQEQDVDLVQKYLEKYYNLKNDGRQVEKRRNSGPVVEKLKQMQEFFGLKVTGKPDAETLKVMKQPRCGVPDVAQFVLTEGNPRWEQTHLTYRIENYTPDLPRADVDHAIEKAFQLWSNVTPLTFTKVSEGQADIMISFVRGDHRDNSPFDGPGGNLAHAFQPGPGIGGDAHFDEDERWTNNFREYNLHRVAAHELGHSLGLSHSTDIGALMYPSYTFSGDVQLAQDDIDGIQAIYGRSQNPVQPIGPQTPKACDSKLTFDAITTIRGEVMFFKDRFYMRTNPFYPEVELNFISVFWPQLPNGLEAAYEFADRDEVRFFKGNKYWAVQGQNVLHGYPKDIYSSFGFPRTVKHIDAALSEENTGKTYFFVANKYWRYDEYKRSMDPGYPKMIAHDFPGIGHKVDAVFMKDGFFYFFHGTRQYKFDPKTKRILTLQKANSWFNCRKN

Estrogen receptor = biological target: T3, Estrogen receptor (Homo sapiens, UniProt P03372); conditions: sf9; also: in other assays of this panel Not Active means under 50% inhibition at 10 µM
T3 sequence (P03372 whole entry): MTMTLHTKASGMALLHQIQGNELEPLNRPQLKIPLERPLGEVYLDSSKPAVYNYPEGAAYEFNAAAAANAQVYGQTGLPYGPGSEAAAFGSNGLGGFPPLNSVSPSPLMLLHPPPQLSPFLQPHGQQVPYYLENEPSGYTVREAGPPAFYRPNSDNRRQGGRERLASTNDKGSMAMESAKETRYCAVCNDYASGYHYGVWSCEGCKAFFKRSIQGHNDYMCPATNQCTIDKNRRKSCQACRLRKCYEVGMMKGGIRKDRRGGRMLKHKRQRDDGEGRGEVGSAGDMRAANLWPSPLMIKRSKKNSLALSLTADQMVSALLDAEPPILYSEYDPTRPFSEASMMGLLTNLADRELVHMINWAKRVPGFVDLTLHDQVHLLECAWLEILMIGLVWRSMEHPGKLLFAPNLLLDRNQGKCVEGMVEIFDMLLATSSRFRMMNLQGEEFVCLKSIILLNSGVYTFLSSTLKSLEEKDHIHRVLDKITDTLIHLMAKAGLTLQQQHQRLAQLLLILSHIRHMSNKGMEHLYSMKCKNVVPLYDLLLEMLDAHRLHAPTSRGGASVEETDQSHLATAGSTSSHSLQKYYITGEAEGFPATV

Chain of Beta-3 adrenergic receptor (P13945 whole entry): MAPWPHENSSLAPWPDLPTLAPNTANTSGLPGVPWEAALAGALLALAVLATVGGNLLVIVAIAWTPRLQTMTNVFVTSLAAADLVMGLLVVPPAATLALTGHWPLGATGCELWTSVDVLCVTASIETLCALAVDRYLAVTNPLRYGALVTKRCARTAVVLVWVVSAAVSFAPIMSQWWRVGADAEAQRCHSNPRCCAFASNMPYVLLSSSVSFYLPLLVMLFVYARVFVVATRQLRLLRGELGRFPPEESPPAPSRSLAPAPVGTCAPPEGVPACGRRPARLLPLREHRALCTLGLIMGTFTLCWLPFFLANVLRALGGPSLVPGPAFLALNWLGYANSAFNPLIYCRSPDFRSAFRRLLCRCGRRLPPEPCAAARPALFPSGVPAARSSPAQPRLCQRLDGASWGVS

CCC(=O)O[C@]1(C(=O)CCl)[C@@H](C)C[C@H]2[C@@H]3CCC4=CC(=O)C=C[C@]4(C)[C@@]3(F)[C@@H](O)C[C@@]21C [CLOBETASOL PROPIONATE]
Not Active: IC50 [1] | IC50 (Endothelin-1 receptor) | IC50 [2] | Ki [2] | IC50 [3] | Ki [3] | IC50 [4] | Ki [4] | IC50 (Interstitial collagenase) | IC50 (Estrogen receptor)

O=C1CN=C(c2ccccc2Cl)c2cc([N+](=O)[O-])ccc2N1 [CLONAZEPAM]
Not Active: IC50 [1] | IC50 (Endothelin-1 receptor) | IC50 [2] | Ki [2] | IC50 [3] | Ki [3] | IC50 [4] | Ki [4] | IC50 (Interstitial collagenase) | IC50 (Estrogen receptor)

Nc1ccn([C@@H]2O[C@H](CO)[C@@H](O)[C@@H]2O)c(=O)n1 [CYTARABINE]
Not Active: IC50 [1] | IC50 (Endothelin-1 receptor) | IC50 [2] | Ki [2] | IC50 [3] | Ki [3] | IC50 [4] | Ki [4] | IC50 (Interstitial collagenase) | IC50 (Estrogen receptor)

C[C@@H]1CC[C@@]2(OC1)O[C@H]1[C@@H](O)[C@H]3[C@@H]4CC[C@H]5C[C@@H](O[C@@H]6O[C@H](CO)[C@H](O[C@@H]7O[C@H](CO)C(O)[C@H](O[C@@H]8OC[C@@H](O)[C@H](O)[C@H]8O)[C@H]7O[C@@H]7O[C@H](CO)[C@H](O)[C@H](O[C@@H]8O[C@H](CO)[C@@H](O)[C@H](O)[C@H]8O)[C@H]7O)[C@H](O)[C@H]6O)[C@H](O)C[C@]5(C)[C@H]4CC[C@]3(C)[C@H]1[C@@H]2C (stereo not given in full) [DIGITONIN]
Not Active: IC50 [1] | IC50 (Endothelin-1 receptor) | IC50 [2] | Ki [2] | IC50 [3] | Ki [3] | IC50 [4] | Ki [4] | IC50 (Interstitial collagenase) | IC50 (Estrogen receptor)

OC(CCCN1CCCCC1)(c1ccccc1)c1ccccc1 [DIPHENIDOL]
Not Active: IC50 [1] | IC50 (Endothelin-1 receptor) | IC50 [2] | Ki [2] | IC50 [3] | Ki [3] | IC50 [4] | Ki [4] | IC50 (Interstitial collagenase) | IC50 (Estrogen receptor)

Cn1c(=O)c2c(ncn2CC(O)CO)n(C)c1=O (stereo not given) [DYPHYLLINE]
Not Active: IC50 [1] | IC50 (Endothelin-1 receptor) | IC50 [2] | Ki [2] | IC50 [3] | Ki [3] | IC50 [4] | Ki [4] | IC50 (Interstitial collagenase) | IC50 (Estrogen receptor)

CCC1(C)CC(=O)NC1=O (stereo not given) [ETHOSUXIMIDE]
Not Active: IC50 [1] | IC50 (Endothelin-1 receptor) | IC50 [2] | Ki [2] | IC50 [3] | Ki [3] | IC50 [4] | Ki [4] | IC50 (Interstitial collagenase) | IC50 (Estrogen receptor)

C#C[C@]1(OC(C)=O)CC[C@H]2[C@@H]3CCC4=C[C@@H](OC(C)=O)CC[C@@H]4[C@H]3CC[C@@]21C [ETHYNODIOL DIACETATE]
Not Active: IC50 [1] | IC50 (Endothelin-1 receptor) | IC50 [2] | Ki [2] | IC50 [3] | Ki [3] | IC50 [4] | Ki [4] | IC50 (Interstitial collagenase) | IC50 (Estrogen receptor)

C=CCc1ccc(O)c(OC)c1 [EUGENOL]
Not Active: IC50 [1] | IC50 (Endothelin-1 receptor) | IC50 [2] | Ki [2] | IC50 [3] | Ki [3] | IC50 [4] | Ki [4] | IC50 (Interstitial collagenase) | IC50 (Estrogen receptor)

CC(C)(C)NC(=O)[C@H]1CC[C@H]2[C@@H]3CC[C@H]4NC(=O)C=C[C@]4(C)[C@H]3CC[C@]12C [FINASTERIDE]
Not Active: IC50 [1] | IC50 (Endothelin-1 receptor) | IC50 [2] | Ki [2] | IC50 [3] | Ki [3] | IC50 [4] | Ki [4] | IC50 (Interstitial collagenase) | IC50 (Estrogen receptor)

COc1ccc2c3c1O[C@H]1C[C@@H](O)C=C[C@@]31CCN(C)C2 [GALANTAMINE]
Not Active: IC50 [1] | IC50 (Endothelin-1 receptor) | IC50 [2] | Ki [2] | IC50 [3] | Ki [3] | IC50 [4] | Ki [4] | IC50 (Interstitial collagenase) | IC50 (Estrogen receptor)

Nc1ccn([C@@H]2O[C@H](CO)[C@@H](O)C2(F)F)c(=O)n1 [GEMCITABINE]
Not Active: IC50 [1] | IC50 (Endothelin-1 receptor) | IC50 [2] | Ki [2] | IC50 [3] | Ki [3] | IC50 [4] | Ki [4] | IC50 (Interstitial collagenase) | IC50 (Estrogen receptor)

COC1=C(OC)C(=O)C(CCCCCCCCCCO)=C(C)C1=O [IDEBENONE]
Not Active: IC50 [1] | IC50 (Endothelin-1 receptor) | IC50 [2] | Ki [2] | IC50 [3] | Ki [3] | IC50 [4] | Ki [4] | IC50 (Interstitial collagenase) | IC50 (Estrogen receptor)

CC(C)NNC(=O)c1ccncc1 [IPRONIAZID]
Not Active: IC50 [1] | IC50 (Endothelin-1 receptor) | IC50 [2] | Ki [2] | IC50 [3] | Ki [3] | IC50 [4] | Ki [4] | IC50 (Interstitial collagenase) | IC50 (Estrogen receptor)

O=c1cc(N2CCOCC2)oc2c(-c3ccccc3)cccc12 [LY-294002]
Not Active: IC50 [1] | IC50 (Endothelin-1 receptor) | IC50 [2] | Ki [2] | IC50 [3] | Ki [3] | IC50 [4] | Ki [4] | IC50 (Interstitial collagenase) | IC50 (Estrogen receptor)

COc1ccc2[nH]cc(CCNC(C)=O)c2c1 [MELATONIN]
Not Active: IC50 [1] | IC50 (Endothelin-1 receptor) | IC50 [2] | Ki [2] | IC50 [3] | Ki [3] | IC50 [4] | Ki [4] | IC50 (Interstitial collagenase) | IC50 (Estrogen receptor)

NC(=O)C[S+]([O-])C(c1ccccc1)c1ccccc1 (stereo not given) [MODAFINIL]
Not Active: IC50 [1] | IC50 (Endothelin-1 receptor) | IC50 [2] | Ki [2] | IC50 [3] | Ki [3] | IC50 [4] | Ki [4] | IC50 (Interstitial collagenase) | IC50 (Estrogen receptor)

CCN(CC)CCOCCC1=CCC2CC1C2(C)C (stereo not given) [MYRTECAINE]
Not Active: IC50 [1] | IC50 (Endothelin-1 receptor) | IC50 [2] | Ki [2] | IC50 [3] | Ki [3] | IC50 [4] | Ki [4] | IC50 (Interstitial collagenase) | IC50 (Estrogen receptor)

O=C(O)c1cccnc1Nc1cccc(C(F)(F)F)c1 [NIFLUMIC ACID]
Not Active: IC50 [1] | IC50 (Endothelin-1 receptor) | IC50 [2] | Ki [2] | IC50 [3] | Ki [3] | IC50 [4] | Ki [4] | IC50 (Interstitial collagenase) | IC50 (Estrogen receptor)

C#CC1(O)CC[C@H]2[C@@H]3CCC4=CC(=O)CC[C@@H]4[C@H]3CC[C@@]21CC (stereo not given in full) [NORGESTREL]
Not Active: IC50 [1] | IC50 (Endothelin-1 receptor) | IC50 [2] | Ki [2] | IC50 [3] | Ki [3] | IC50 [4] | Ki [4] | IC50 (Interstitial collagenase) | IC50 (Estrogen receptor)

COC(=O)Nc1nc2ccc([S+]([O-])c3ccccc3)cc2[nH]1 (stereo not given) [OXFENDAZOLE]
Not Active: IC50 [1] | IC50 (Endothelin-1 receptor) | IC50 [2] | Ki [2] | IC50 [3] | Ki [3] | IC50 [4] | Ki [4] | IC50 (Interstitial collagenase) | IC50 (Estrogen receptor)
